This passage reports mortality results from patent publication US20200190073A1, “SUBSTITUTED SUCCINIMIDE DERIVATIVES AS PESTICIDES” (BASF SE, priority 2017, published 2020).

What all share (format): in vivo
Experiment [1] relates to Diamond back moth (Plutella xylostella). Kind of experiment: B.1 Diamond back moth, cabbage leaf dip. The note with it: foliar, 72 h, read-out: mortality in comparison with untreated controls. The method, then:
B.1 Diamond back moth (Plutella xylostella)
The active compound was dissolved at the desired concentration in a mixture of 1:1 (vol:vol) distilled water:acetone. Surfactant (Kinetic HV) was added at a rate of 0.01% (vol/vol). The test solution was prepared at the day of use.
Leaves of cabbage were dipped in test solution and air-dried. Treated leaves were placed in petri dishes lined with moist filter paper and inoculated with ten 3rd instar larvae. Mortality was recorded 72 hours after treatment. Feeding damages were also recorded using a scale of 0-100%.

Experiment [2] concerns Green Peach Aphid (Myzus persicae). In words: B.2 Green peach aphid, artificial diet, systemic. Conditions: 72 h, read-out: mortality in comparison with untreated controls. An excerpt:
B.2 Green Peach Aphid (Myzus persicae)
For evaluating control of green peach aphid (Myzus persicae) through systemic means the test unit consisted of 96-well-microtiter plates containing liquid artificial diet under an artificial mem brane.
The compounds were formulated using a solution containing 75% v/v water and 25% v/v DMSO. Different concentrations of formulated compounds were pipetted into the aphid diet, using a custom built pipetter, at two replications.
After application, 5-8 adult aphids were placed on the artificial membrane inside the microtiter plate wells. The aphids were then allowed to suck on the treated aphid diet and incubated at about 23±1° C. and about 50±5% relative humidity for 3 days. Aphid mortality and fecundity was then visually assessed.

For experiment [3], the system named is Tobacco Budworm (Heliothis virescens). In words: B.4 Tobacco budworm, insect diet with eggs. Conditions: 120 h, read-out: mortality in comparison with untreated controls. The method, then:
B.4 Tobacco Budworm (Heliothis virescens)
For evaluating control of tobacco budworm (Heliothis virescens) the test unit consisted of 96-well-microtiter plates containing an insect diet and 15-25 H. virescens eggs.
The compounds were formulated using a solution containing 75% v/v water and 25% v/v DMSO. Different concentrations of formulated compounds were sprayed onto the insect diet at 10 μl, using a custom built micro atomizer, at two replications.
After application, microtiter plates were incubated at about 28±1° C. and about 80±5% relative humidity for 5 days. Egg and larval mortality was then visually assessed.

Experiment [4] has as its system Boll Weevil (Anthonomus grandis). In words: B.5 Boll weevil, insect diet with eggs. The note with it: 120 h, read-out: mortality in comparison with untreated controls. The protocol: B.5 Boll Weevil (Anthonomus grandis)
For evaluating control of boll weevil (Anthonomus grandis) the test unit consisted of 96-well-microtiter plates containing an insect diet and 5-10 A. grandis eggs.
The compounds were formulated using a solution containing 75% v/v water and 25% v/v DMSO. Different concentrations of formulated compounds were sprayed onto the insect diet at 5 μl, using a custom built micro atomizer, at two replications.
After application, microtiter plates were incubated at about 25±1° C. and about 75±5% relative humidity for 5 days. Egg and larval mortality was then visually assessed.

The subject of experiment [5] is Orchid Thrips (Dichromothrips Corbetti). In words: B.7 Orchid thrips, floral immersion. The note with it: Thrips, 72 h, read-out: mortality in comparison with untreated controls. The protocol:
B.7 Orchid Thrips (Dichromothrips Corbetti)
Dichromothrips corbetti adults used for bioassay were obtained from a colony maintained continuously under laboratory conditions. For testing purposes, the test compound is diluted in a 1:1 mixture of acetone:water (vol:vol), plus Kinetic HV at a rate of 0.01% v/v.
Thrips potency of each compound was evaluated by using a floral-immersion technique. All petals of individual, intact orchid flowers were dipped into treatment solution and allowed to dry in Petri dishes. Treated petals were placed into individual re-sealable plastic along with about 20 adult thrips. All test arenas were held under continuous light and a temperature of about 28° C. for duration of the assay. After 3 days, the numbers of live thrips were counted on each petal. The percent mortality was recorded 72 hours after treatment.

Experiment [6] has as its system Vetch Aphid (Megoura viciae). In words: B.3 Vetch aphid, broad bean leaf disks. The note with it: foliar, 120 h, read-out: mortality in comparison with untreated controls. The protocol:
B.3 Vetch Aphid (Megoura viciae)
For evaluating control of vetch aphid (Megoura viciae) through contact or systemic means the test unit consisted of 24-well-microtiter plates containing broad bean leaf disks.
The compounds were formulated using a solution containing 75% v/v water and 25% v/v DMSO. Different concentrations of formulated compounds were sprayed onto the leaf disks at 2.5 μl, using a custom built micro atomizer, at two replications.
After application, the leaf disks were air-dried and 5-8 adult aphids placed on the leaf disks inside the microtiter plate wells. The aphids were then allowed to suck on the treated leaf disks and incubated at about 23±1° C. and about 50±5% relative humidity for 5 days. Aphid mortality and fecundity was then visually assessed.

Experiment [7] has as its system Red Spider Mite (Tetranychus kanzawai). In words: B.9 Red spider mite, sprayed cowpea beans. The note with it: 72 h, read-out: mortality in comparison with untreated controls. The protocol: B.9 Red Spider Mite (Tetranychus kanzawai)
The active compound was dissolved at the desired concentration in a mixture of 1:1 (vol:vol) distilled water:acetone. Add surfactant (Kinetic HV) was added at a rate of 0.01% (vol/vol).The test solution was prepared at the day of use.
Potted cowpea beans of 4-5 days of age were cleaned with tap water and sprayed with 1-2 ml of the test solution using air driven hand atomizer. The treated plants were allowed to air dry and afterwards inoculated with 30 or more mites by clipping a cassava leaf section from rearing population. Treated plants were placed inside a holding room at about 25-27° C. and about 50-60% relative humidity. Percent mortality was assessed 72 hours after treatment.

Experiment [8] relates to Green Soldier Stink Bug (Nezara viridula). In words: B.11 Green soldier stink bug, sprayed soybean pods. The note with it: 120 h, read-out: mortality in comparison with untreated controls. The method, then:
B.11 Green Soldier Stink Bug (Nezara viridula)
The active compound was dissolved at the desired concentration in a mixture of 1:1 (vol:vol) distilled water:acetone. Surfactant (Kinetic HV) was added at a rate of 0.01% (vol/vol). The test solution was prepared at the day of use. Soybean pods were placed in glass Petri dishes lined with moist filter paper and inoculated with ten late 3rd instar N. viridula. Using a hand atomizer, approximately 2 ml solution is sprayed into each Petri dish. Assay arenas were kept at about 25° C. Percent mortality was recorded after 5 days.

The test system of experiment [9] is Rice Green Leafhopper (Nephotettix virescens). In words: B.8 Rice green leafhopper, sprayed rice seedlings. Conditions: 72 h, read-out: mortality in comparison with untreated controls. The method, then:
B.8 Rice Green Leafhopper (Nephotettix virescens)
Rice seedlings were cleaned and washed 24 hours before spraying. The active compounds were formulated in 1:1 acetone:water (vol:vol), and 0.01% vol/vol surfactant (Kinetic HV) was added. Potted rice seedlings were sprayed with 5-6 ml test solution, air dried, covered with Mylar cages and inoculated with 10 adults. Treated rice plants were kept at about 28-29° C. and relative humidity of about 50-60%. Percent mortality was recorded after 72 hours.

Experiment [10] relates to Orchid Thrips (Dichromothrips Corbetti). Kind of experiment: CE.3 Orchid thrips, comparative test. The note with it: 96 h, read-out: % mortality in comparison to untreated controls. The method, then: (§1) The tables show % mortality in comparison to untreated controls.
CE.3 Orchid Thrips (Dichromothrips Corbetti)
Dichromothrips corbetti adults used for bioassay were obtained from a colony maintained continuously under laboratory conditions. For testing purposes, the test compound was diluted to a concentration of 300 ppm (wt compound: vol diluent) in a 1:1 mixture of acetone:water (vol:vol), plus 0.01% vol/vol Kinetic® surfactant.
Thrips potency of each compound was evaluated by using a floral-immersion technique. Plastic petri dishes were used as test arenas. All petals of individual, intact orchid flowers were dipped into treatment solution and allowed to dry. Treated flowers were placed into individual petri dishes along with 10-15 adult thrips. The petri dishes were then covered with lids. All test arenas were held under continuous light and a temperature of about 280C for duration of the assay. After 4 days, the numbers of live thrips were counted on each flower, and along inner walls of each petri dish. The level of thrips mortality was extrapolated from pre-treatment thrips numbers.

The test system of experiment [11] is Rice Green Leafhopper (Nephotettix virescens). In words: CE.5 Rice green leafhopper, comparative test. The note with it: 72 h, read-out: % mortality in comparison to untreated controls. The protocol: as §1
CE.5 Rice Green Leafhopper (Nephotettix virescens)
Rice seedlings were cleaned and washed 24 hours before spraying. The active compounds were formulated in 50:50 acetone:water (vol:vol), and 0.1% vol/vol surfactant (EL 620) was added. Potted rice seedlings were sprayed with 5 ml test solution, air dried, placed in cages and inoculated with 10 adults. Treated rice plants were kept at about 28-29° C. and relative humidity of about 50-60%. Percent mortality was recorded after 72 hours.

Bounds are passed on as bounds.

For the molecule `O=C(N[C@@H]1CC(=O)N(O)C1=O)c1ccc(C2=NOC(c3cc(Cl)c(F)c(Cl)c3)(C(F)(F)F)C2)cc1Cl` (stereo partly drawn) [Compound I-1-33, 2-Chloro-4-[5-(3,5-dichloro-4-fluoro-phenyl)-5-(trifluoromethyl)-4H-isoxazol-3-yl]-N-[(3R)-1-hydroxy-2,5-dioxo-pyrrolidin-3-yl]benzamide], the mortality at 300 ppm in [1] and in experiment [5] was > 75% throughout. The mortality at 2500 ppm in [2], in experiment [3] and in experiment [4] was > 75% throughout.

Regarding `CNN1C(=O)C[C@@H](NC(=O)c2ccc(C3=NOC(c4cc(Cl)cc(Cl)c4)(C(F)(F)F)C3)cc2C)C1=O` (stereo partly drawn) [Compound I-1-45, 4-[5-(3,5-Dichlorophenyl)-5-(trifluoromethyl)-4H-isoxazol-3-yl]-2-methyl-N-[(3R)-1-(methylamino)-2,5-dioxo-pyrrolidin-3-yl]benzamide], the mortality at 300 ppm in experiment [1], in [5], in experiment [7] and in experiment [8] was > 75% throughout. The mortality at 2500 ppm in experiment [2], in experiment [6], in experiment [3] and in experiment [4] was > 75% throughout.

As for `CCN1C(=O)C[C@@H](NC(=O)c2ccc(C3=NOC(c4cc(Cl)c(F)c(Cl)c4)(C(F)(F)F)C3)cc2C)C1=O` (some centres unmarked) [Compound I-1-50], the mortality at 300 ppm in experiment [1], in [5], in [9], in experiment [7] and in [8] was > 75% each time. For the same molecule, the mortality at 2500 ppm in experiment [2], in [6], in [3] and in experiment [4] was > 75% in each case. Also, the mortality (as a rule, the percentage killed) at 10 ppm in experiment [10] amounted to 100%.

With `CCN1C(=O)C[C@@H](NC(=O)c2ccc(C3=NOC(c4cc(Cl)cc(Cl)c4)(C(F)(F)F)C3)cc2C)C1=O` (some centres unmarked) [Compound I-1-51], the mortality at 300 ppm in experiment [1], in experiment [5], in experiment [9], in experiment [7] and in experiment [8] was > 75% in each case. Also, the mortality at 2500 ppm in [2], in experiment [6], in experiment [3] and in experiment [4] was > 75% in each case. Also, the mortality at 10 ppm in experiment [10] worked out at 100%. Moreover, the mortality at 3 ppm in experiment [11] amounted to 90%.

On to `CON1C(=O)C[C@@H](NC(=O)c2ccc(C3=NOC(c4cc(Cl)cc(Cl)c4)(C(F)(F)F)C3)cc2C)C1=O` (stereo partly drawn) [Compound I-1-55, 4-[5-(3,5-Dichlorophenyl)-5-(trifluoromethyl)-4H-isoxazol-3-yl]-N-[(3R)-1-methoxy-2,5-dioxo-pyrrolidin-3-yl]-2-methyl-benzamide], for which the mortality at 300 ppm in [1], in experiment [5], in experiment [9], in experiment [7] and in experiment [8] was > 75% throughout. Besides, the mortality at 2500 ppm in experiment [2], in experiment [6], in experiment [3] and in experiment [4] was > 75% each time.

For the molecule `Cc1cc(C2=NOC(c3cc(Cl)c(F)c(Cl)c3)(C(F)(F)F)C2)ccc1C(=O)N[C@@H]1CC(=O)N(CC(F)(F)F)C1=O` (some centres unmarked) [Compound I-1-57], the mortality at 300 ppm in experiment [1], in [5], in [9] and in experiment [7] was > 75% in each case. Also, the mortality at 2500 ppm in experiment [2], in experiment [6], in experiment [3] and in experiment [4] was > 75% each time. For the same molecule, the mortality at 10 ppm in experiment [10] was determined as 100%.

Regarding `O=C(N[C@@H]1CC(=O)N(CC(F)(F)F)C1=O)c1ccc(C2=NOC(c3cc(Cl)c(F)c(Cl)c3)(C(F)(F)F)C2)cc1Cl` (some centres unmarked) [Compound I-1-59], the mortality at 300 ppm in experiment [1], in [5], in [9], in experiment [7] and in [8] was > 75% throughout. Further, the mortality at 2500 ppm in [2], in [6], in [3] and in experiment [4] was > 75% each time. For the same molecule, the mortality at 10 ppm in experiment [10] is 100%.
